In article PMC6270455, “Antibacterial and Herbicidal Activity of Ring-Substituted 3-Hydroxynaphthalene-2-carboxanilides” (Molecules, 2013):
pIC50: −log10 of the molar value. Converted amounts (≈) assume the structure as drawn. Read-outs that look alike come from different tables or passages of the source.

Columns and labels:
[1] = Lipophilicity determination by RP-HPLC (capacity factor, log k); assay type: physicochemical; conditions: RP-HPLC capacity factor logarithm; C18 column, MeOH 60% / H2O 40%, 40 °C
Experimental: Lipophilicity of the studied compounds was determined by RP-HPLC as capacity factor logarithm (log k) and calculated as log P using ACD/Percepta software. […] It is important to note that lipophilicity also has a great impact on target and off-target interactions, as mentioned below.
A HPLC system Agilent 1200 equipped with DAD detector (Agilent, Santa Clara, CA, USA) was used. A chromatographic column Symmetry® C18 5 μm, 4.6 × 250 mm, Part No. WAT054275, (Waters Corp., Milford, MA, USA) was used. The HPLC separation process was monitored and evaluated by EZChrom Elite software ver. 3.3.2 (Agilent). Isocratic elution by a mixture of MeOH p.a. (60%) and H2O-HPLC Mili-Q grade (40%) as a mobile phase was used. The total flow of the column was 1.0 mL/min, injection 20 μL, column temperature 40 °C and sample temperature 10 °C. The detection wavelength 210 nm was chosen. The KI methanolic solution was used for the dead time (tD) determination. Retention times (tR) were measured in minutes. The capacity factors k were calculated according to formula k = (tR − tD)/tD, where tR is the retention time of the solute, whereas tD denotes the dead time obtained using an unretained analyte. Log k, calculated from the capacity factor k, is used as the lipophilicity index converted to log P scale.

[2] = system: photosynthetic electron transport (PET) in spinach chloroplasts; assay: Inhibition of photosynthetic electron transport (PET) in spinach chloroplasts (DCPIP photoreduction); assay type: biochemical, Spinacia oleracea L.
Experimental: Chloroplasts were prepared from spinach (Spinacia oleracea L.) according to Masarovicova and Kralova. The inhibition of photosynthetic electron transport (PET) in spinach chloroplasts was determined spectrophotometrically (Genesys 6, Thermo Scientific), using an artificial electron acceptor 2,6-dichlorophenol-indophenol (DCIPP) according to Kralova et al., and the rate of photosynthetic electron transport was monitored as a photoreduction of DCPIP. The measurements were carried out in phosphate buffer (0.02 mol/L, pH 7.2) containing sucrose (0.4 mol/L), MgCl2 (0.005 mol/L) and NaCl (0.015 mol/L). The chlorophyll content was 30 mg/L in these experiments and the samples were irradiated (~100 W/m^2 with 10 cm distance) with a halogen lamp (250 W) using a 4 cm water filter to prevent warming of the samples (suspension temperature 22 °C). The studied compounds were dissolved in DMSO due to their limited water solubility. […] The inhibitory efficiency of the studied compounds was expressed by IC50 values, i.e., by molar concentration of the compounds causing 50% decrease in the oxygen evolution rate relative to the untreated control.

[3] = system: Staphylococcus aureus ATCC 29213; assay: In vitro antibacterial susceptibility testing, broth dilution micro-method; assay type: cell-based; conditions: ATCC29213, MH broth, 24 h, 37 °C
Experimental: (§1) The synthesized compounds were evaluated for in vitro antibacterial activity against representatives of multidrug-resistant bacteria, clinical isolates of methicillin-resistant Staphylococcus aureus (MRSA) 63718, SA 630 and SA 3202 that were obtained from the National Institute of Public Health, Prague, Czech Republic. Staphylococcus aureus ATCC 29213 was used as a reference and quality control strain. Ampicillin (Sigma-Aldrich) was used as the standard. Prior to testing, each strain was passaged onto nutrient agar (Oxoid, Hampshire, UK) with 5% of bovine blood, and bacterial inocula were prepared by suspending a small portion of bacterial colony in sterile phosphate buffered saline (pH 7.2–7.3). The cell density was adjusted to 0.5 McFarland units using a densitometer (Densi-La-Meter, LIAP, Riga, Latvia). The final inoculum was made by 1:20 dilution of the suspension with the Mueller-Hinton broth (MH broth). […] The broth dilution micro-method modified according to NCCLS guidelines in MH broth was used to determine the minimum inhibitory concentration (MIC). Drug-free controls, sterility controls and controls consisted of MH broth and DMSO alone were included. The determination of results was performed visually after 24 h of static incubation in the darkness at 37 °C in an aerobic atmosphere. The MICs were defined as the lowest concentration of the compound at which no visible bacterial growth was observed.

[4] = system: methicillin-resistant Staphylococcus aureus (MRSA) 63718; assay: as above; assay type: cell-based; conditions: Staphylococcus aureus; clinical isolate MRSA 63718; MH broth, 24 h, 37 °C
Experimental: as §1

[5] = system: methicillin-resistant S. aureus SA 3202; assay: as above; assay type: cell-based, Staphylococcus aureus; conditions: Staphylococcus aureus; clinical isolate MRSA SA 3202; MH broth, 24 h, 37 °C
Experimental: as §1

[6] = system: methicillin-resistant S. aureus SA 630; assay: as above; assay type: cell-based, Staphylococcus aureus; conditions: Staphylococcus aureus; clinical isolate MRSA SA 630; MH broth, 24 h, 37 °C
Experimental: as §1

[7] = system: Mycobacterium marinum CAMP 5644; assay: In vitro antimycobacterial evaluation, broth dilution micro-method; assay type: cell-based; conditions: CAMP5644, 504 h, Middlebrook 7H9, 21 days, 28 °C
M. kansasii DSM 44162 = assay: as above; assay type: cell-based; conditions: Mycobacterium kansasii, DSM44162, 168 h, Middlebrook 7H9, 7 days, 37 °C
[8] = system: human monocytic leukemia THP-1 cells; assay type: cell-based; conditions: 24 h
Experimental: Human monocytic leukemia THP-1 cells were used for in vitro toxicity assay. Cells were obtained from the European Collection of Cell Cultures (ECACC, Salisbury, UK) and routinely cultured in RPMI medium supplemented with 10% fetal bovine serum, 2% L-glutamine, 1% penicillin and streptomycin at 37 °C with 5% CO2. Cytotoxicity was determined using a WST-1 assay kit (Roche Diagnostics, Mannheim, Germany) according to the manufacturer’s instructions. The tested compounds were dissolved in DMSO and added in five increasing concentrations (0.37, 1.1, 3.3, 10, and 30 μmol/L) to the cell suspension in the culture medium. Subsequently, the cells were incubated for 24 h at 37 °C with 5% CO2. WST-1 assays conducted in triplicates were performed as previously described. The median lethal dose values, LD50, were deduced through the production of a dose-response curve. All data were evaluated using GraphPad Prism 5.00 software (GraphPad Software, San Diego, CA, USA).

[9] = system: human monocytic leukemia THP-1 cells; conditions: assessed in this line formerly; cited from earlier work
[10] = phosphate buffer pH 7.2, DCPIP acceptor

| SMILES | log k [1] | pIC50 ([2]; as quoted in the chlorophyll a fluorescence discussion) | pIC50 [2, 10] | MIC [3] | MIC [4] | MIC [5] | MIC [6] | MIC [7] | MIC (M. kansasii DSM 44162) | LD50 [8] | LD50 [9] |
| --- | --- | --- | --- | --- | --- | --- | --- | --- | --- | --- | --- |
| O=C(Nc1ccccc1C(F)(F)F)c1cc2ccccc2cc1O [compound 7a, 3-Hydroxy-N-(2-trifluoromethylphenyl)naphthalene-2-carboxamide] | 0.8762 | 3.98 | 3.98 | > 773 µM | > 773 µM | 97 µM (≈ 32.1 µg/mL) | > 773 µM | 193 µM (≈ 63.9 µg/mL) | 193 µM (≈ 63.9 µg/mL) | 28.6 ± 0.5 µmol/L | – |
| CC[C@@]1(O)C(=O)OCc2c1cc1n(c2=O)Cc2cc3ccccc3nc2-1 [camptothecin] | – | – | – | – | – | – | – | – | – | – | 0.20 ± 0.07 µmol/L |
| O=C(Nc1ccccc1[N+](=O)[O-])c1cc2ccccc2cc1O [compound 8a, 3-Hydroxy-N-(2-nitrophenyl)naphthalene-2-carboxamide] | 0.8710 | – | 3.97 | > 830 µM | > 830 µM | 415 µM (≈ 128 µg/mL) | 415 µM (≈ 128 µg/mL) | 830 µM (≈ 256 µg/mL) | 830 µM (≈ 256 µg/mL) | – | – |

Second part, led by results:

| log k [1] | pIC50 ([2]; as quoted in the chlorophyll a fluorescence discussion) | pIC50 [2, 10] | MIC [3] | MIC [4] | MIC [5] | MIC [6] | MIC [7] | MIC (M. kansasii DSM 44162) | SMILES | LD50 [8] | LD50 [9] |
| --- | --- | --- | --- | --- | --- | --- | --- | --- | --- | --- | --- |
| 0.8143 | – | 4.77 | > 830 µM | > 830 µM | > 830 µM | > 830 µM | > 830 µM | 415 µM (≈ 128 µg/mL) | O=C(Nc1cccc([N+](=O)[O-])c1)c1cc2ccccc2cc1O [compound 8b, 3-Hydroxy-N-(3-nitrophenyl)naphthalene-2-carboxamide] | 2.5 ± 0.9 µmol/L | – |
| 0.9715 | – | 4.36 | > 748 µM | > 748 µM | > 748 µM | > 748 µM | > 748 µM | 748 µM (≈ 256 µg/mL) | O=C(Nc1ccccc1Br)c1cc2ccccc2cc1O [6a, N-(2-Bromophenyl)-3-hydroxynaphthalene-2-carboxamide] | – | – |
